This experiment addresses PCSK9 (Homo sapiens, UniProt Q8NBP7). As to the kind of experiment: PCSK9-LDLR in vitro binding assay (solid phase, ELISA readout). Particulars: read-out: % Inhibition PCSK 9; for inhibition at 1 µM: test compound concentration 1 μM; for inhibition at 10 µM: test compound concentration 10 μM; for inhibition at 100 µM: test compound concentration 100 μM. On the procedure:
The PCSK9-LDLR in vitro binding Assay is a quantitative solid phase binding assay between PCSK9 and recombinant LDLR. Plates were pre-coated with a recombinant LDLR-AB domain, which binds PCSK9. Test compound at different concentration was added to the PCSK9 and added to LDLR immobilized on the wells. The amount of bound PCSK9 is measured by binding it with biotinylated anti-His-tag monoclonal antibody, followed by binding with horseradish peroxidase conjugated streptavidin substrate. The color was quantified by ELISA reader at […] which reflects the relative amount of PCSK9 that binds to LDLR in presence and absence of the inhibitor. EC50 values were calculated by nonlinear regression analysis using graph pad prism software. Each concentration point represents values in duplicates.
(In general: An ELISA detects its analyte on a solid surface through an enzyme-linked reagent.)

Here are results for 17 molecules from patent US9273041B2, “Compounds for the treatment of dyslipidemia and related diseases” (Cadila Healthcare Limited, priority 2012, dated 2016).

The inhibition is how much of the control response was suppressed.

PCSK9, sequence (Q8NBP7 153-692): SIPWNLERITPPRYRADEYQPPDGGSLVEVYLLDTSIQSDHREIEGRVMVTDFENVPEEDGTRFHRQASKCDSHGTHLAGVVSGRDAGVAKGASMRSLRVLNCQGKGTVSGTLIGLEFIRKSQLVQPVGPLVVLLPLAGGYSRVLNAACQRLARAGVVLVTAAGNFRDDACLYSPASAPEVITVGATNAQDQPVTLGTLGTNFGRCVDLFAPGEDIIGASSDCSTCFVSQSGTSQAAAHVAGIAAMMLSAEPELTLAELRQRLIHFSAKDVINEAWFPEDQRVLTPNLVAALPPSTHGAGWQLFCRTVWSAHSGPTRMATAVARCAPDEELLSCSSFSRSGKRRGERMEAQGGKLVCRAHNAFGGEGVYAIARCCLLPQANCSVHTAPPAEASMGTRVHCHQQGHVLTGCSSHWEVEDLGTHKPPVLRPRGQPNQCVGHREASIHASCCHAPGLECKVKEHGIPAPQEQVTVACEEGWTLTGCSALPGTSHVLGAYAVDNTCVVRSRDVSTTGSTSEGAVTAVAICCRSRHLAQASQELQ
PCSK9, sequence (Q8NBP7 31-152 partner limits assumed): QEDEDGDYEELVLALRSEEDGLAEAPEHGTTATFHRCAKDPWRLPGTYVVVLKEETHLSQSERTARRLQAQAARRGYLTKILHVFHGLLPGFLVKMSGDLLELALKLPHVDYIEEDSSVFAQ

Turning to `Cc1oc(-c2cccnc2)nc1-c1ccc(OCC(=O)NCC2CCOCC2)cc1` [Example 24, 2-(4-(5-methyl-2-(pyridin-3-yl)oxazol-4-yl)phenoxy)-N-((tetrahydro-2H-pyran-4-yl)methyl)acetamide], the inhibition at 1 µM was found to be 49%, the inhibition at 10 µM came to 76% and the inhibition at 100 µM was found to be 35%.

`COc1ccc(-c2nnc(-c3ccc(OCC(=O)NCC4CCOCC4)cc3)o2)cc1` [Example 32, 2-(4-(5-(4-methoxyphenyl)-1,3,4-oxadiazol-2-yl)phenoxy)-N-((tetrahydro-2H-pyran-4-yl)methyl)acetamide]: the inhibition at 1 µM is 13%, the inhibition at 10 µM turned out to be 23% and the inhibition at 100 µM amounted to 30%.

On to `Cc1c(-c2ccc(OCC(=O)NCC3CCOCC3)cc2)noc1-c1ccc(Cl)cc1` [Example 4, 2-(4-(5-(4-chlorophenyl)-4-methylisoxazol-3-yl)phenoxy)-N-((tetrahydro-2H-pyran-4-yl)methyl)acetamide], for which the inhibition at 10 µM turned out to be 36% and the inhibition at 100 µM came to 29%.

As for `COc1ccc(N2CC(c3ccc(OCC(=O)NCC4CCOCC4)cc3)OC2=O)cc1` (stereo not shown) [Example 36, 2-(4-(3-(4-methoxyphenyl)-2-oxooxazolidin-5-yl)phenoxy)-N-((tetrahydro-2H-pyran-4-yl)methyl)acetamide], the inhibition at 1 µM was found to be 47%, the inhibition at 10 µM came to 24% and the inhibition at 100 µM came out at 61%.

As for `Cc1c(-c2ccc(OCC(=O)NCC3CCOCC3)cc2)nsc1-c1ccccc1` [Example 7, 2-(4-(4-methyl-5-phenylisothiazol-3-yl)phenoxy)-N-((tetrahydro-2H-pyran-4-yl)methyl)acetamide], the inhibition at 1 µM stood at 22%, the inhibition at 10 µM is 22% and the inhibition at 100 µM is 55%.

For the molecule `Cc1onc(-c2ccc(OCC(=O)NCC3CCOCC3)cc2)c1-c1ccccc1` [Example 2, 2-(4-(5-methyl-4-phenylisoxazol-3-yl)phenoxy)-N-((tetrahydro-2H-pyran-4-yl)methyl)acetamide], the inhibition at 10 µM is 9% and the inhibition at 100 µM was determined as 33%.

For the molecule `Cc1nc(-c2ccccc2)sc1-c1ccc(OCC(=O)NCC2CCOCC2)cc1` [Example 11, 2-(4-(4-methyl-2-phenylthiazol-5-yl)phenoxy)-N-((tetrahydro-2H-pyran-4-yl)methyl)acetamide], the inhibition at 1 µM is 30%, the inhibition at 10 µM is 44% and the inhibition at 100 µM was found to be 53%.

For `Cc1ccc(-c2nc(-c3ccc(OCC(=O)NCC4CCOCC4)cc3)c(C)o2)cc1` [Example 22, 2-(4-(5-methyl-2-(p-tolyl)oxazol-4-yl)phenoxy)-N-((tetrahydro-2H-pyran-4-yl)methyl)acetamide], the inhibition at 1 µM came out at 27%, the inhibition at 10 µM was determined as 30% and the inhibition at 100 µM amounted to 54%.

For the molecule `Cc1nc(-c2ccc(C(F)(F)F)cc2)sc1-c1ccc(OCC(=O)NCC2CCOCC2)cc1` [Example 12, 2-(4-(4-methyl-2-(4-(trifluoromethyl)phenyl)thiazol-5-yl)phenoxy)-N-((tetrahydro-2H-pyran-4-yl)methyl)acetamide], the inhibition at 10 µM was 33% and the inhibition at 100 µM was 36%.

Regarding `O=C(COc1ccc(C2CN(c3ccc(F)cc3)C(=O)O2)cc1)NCC1CCOCC1` (stereo not shown) [Example 35, 2-(4-(3-(4-fluorophenyl)-2-oxooxazolidin-5-yl)phenoxy)-N-((tetrahydro-2H-pyran-4-yl)methyl)acetamide], the inhibition at 1 µM came to 14%, the inhibition at 10 µM was 54% and the inhibition at 100 µM is 61%.

In the case of `Cc1oc(-c2ccccc2)nc1-c1ccc(OCC(=O)NCC2CCOCC2)cc1` [Example 17, 2-(4-(5-methyl-2-phenyloxazol-4-yl)phenoxy)-N-((tetrahydro-2H-pyran-4-yl)methyl)acetamide], the inhibition at 1 µM came out at 40%, the inhibition at 10 µM amounted to 38% and the inhibition at 100 µM is 63%.

On to `Cc1ccc(-c2onc(-c3ccc(OCC(=O)NCC4CCOCC4)cc3)c2C)cc1` [Example 6, 2-(4-(4-methyl-5-(p-tolyl)isoxazol-3-yl)phenoxy)-N-((tetrahydro-2H-pyran-4-yl)methyl)acetamide], for which the inhibition at 1 µM stood at 12%, the inhibition at 10 µM stood at 17% and the inhibition at 100 µM was 34%.

On to `COc1cc(-c2ccc(OCC(=O)NCC3CCOCC3)cc2)nn1-c1ccccc1` [Example 10, 2-(4-(5-methoxy-1-phenyl-1H-pyrazol-3-yl)phenoxy)-N-((tetrahydro-2H-pyran-4-yl)methyl)acetamide], for which the inhibition at 1 µM was determined as 33%, the inhibition at 10 µM was 40% and the inhibition at 100 µM was 56%.

Regarding `O=C(COc1ccc(-c2noc(-c3ccc(C(F)(F)F)cc3)n2)cc1)NCC1CCOCC1` [Example 25, N-((tetrahydro-2H-pyran-4-yl)methyl)-2-(4-(5-(4-(trifluoromethyl)phenyl)-1,2,4-oxadiazol-3-yl)phenoxy)acetamide], the inhibition at 1 µM came out at 37%, the inhibition at 10 µM turned out to be 50% and the inhibition at 100 µM worked out at 64%.

Turning to `Cc1nc(-c2ccc(F)cc2)sc1-c1ccc(OCC(=O)NCC2CCOCC2)cc1` [Example 13, 2-(4-(2-(4-fluorophenyl)-4-methylthiazol-5-yl)phenoxy)-N-((tetrahydro-2H-pyran-4-yl)methyl)acetamide], the inhibition at 1 µM is 17%, the inhibition at 10 µM was determined as 30% and the inhibition at 100 µM came to 78%.

As for `Cc1c(-c2ccc(OCC(=O)NCC3CCOCC3)cc2)noc1-c1ccccc1` [Example 1, 2-(4-(4-Methyl-5-phenylisoxazol-3-yl)phenoxy)-N-((tetrahydro-2H-pyran-4-yl)methyl)acetamide], the inhibition at 10 µM worked out at 42% and the inhibition at 100 µM was 68%.

With `Cc1nc(-c2ccc(OCC(=O)NCC3CCOCC3)cc2)oc1C` [Example 39, 2-(4-(4,5-dimethyloxazol-2-yl)phenoxy)-N-((tetrahydro-2H-pyran-4-yl)methyl)acetamide], the inhibition at 10 µM came out at 9% and the inhibition at 100 µM came to 15%.
